Assay results published in patent publication US11440914B2, “Tricyclic amine compounds as CDK2 inhibitors” (Incyte Corporation, priority 2019, dated 2022).

Target: CDK2/Cyclin E1 (Homo sapiens (Human), UniProt P24941)
Assay: CDK2/Cyclin E1 HTRF enzyme activity assay
Format: biochemical
Settings: 1 mM ATP
Protocol: CDK2/Cyclin E1 enzyme activity assays utilize full-length human CDK2 co-expressed as N-terminal GST-tagged protein with FLAG-Cyclin E1 in a baculovirus expression system (Carna Product Number 04-165). Assays are conducted in white 384-well polystyrene plates in a final reaction volume of 8 μL. CDK2/Cyclin E1 (0.25 nM) is incubated with compounds (40 nL serially diluted in DMSO) in the presence of ATP (50 μM or 1 mM) and 50 nM ULight™-labeled eIF4E-binding protein 1 (THR37/46) peptide (PerkinElmer) in assay buffer (containing 50 mM HEPES pH 7.5, 1 mM EGTA, 10 mM MgCl2, 2 mM DTT, 0.05 mg/ml BSA, and 0.01% Tween 20) for 60 minutes at room temperature. The reactions are stopped by the addition of EDTA and Europium-labeled anti-phospho-4E-BP1 antibody (PerkinElmer), for a final concentration of 15 mM and 1.5 nM, respectively. HTRF signals are read after 1 hour at room temperature on a PHERAstar FS plate reader (BMG Labtech). Data is analyzed with IDBS XLFit and GraphPad Prism 5.0 software using a three or four parameter dose response curve to determine IC50 for each compound.

SMILES	IC50
Cc1nc2c([nH]1)-c1nc(NC3CCN(S(C)(=O)=O)CC3)ncc1CC2 [Example 7, 2-Methyl-N-(1-(methylsulfonyl)piperidin-4-yl)-4,5-dihydro-1H-imidazo[4,5-h]quinazolin-8-amine]	50 to 200 nM
Cn1cc2c(n1)CCc1cnc(NC3CCN(S(C)(=O)=O)CC3)nc1-2 [Example 9, 8-Methyl-N-(1-(methylsulfonyl)piperidin-4-yl)-6,8-dihydro-5H-pyrazolo[3,4-h]quinazolin-2-amine]	50 to 200 nM
Cn1cc2c(n1)COc1cnc(NC3CCN(S(C)(=O)=O)CC3)nc1-2 [Example 10, 8-Methyl-N-(1-(methylsulfonyl)piperidin-4-yl)-6,8-dihydropyrazolo[4′,3′:4,5]pyrano[3,2-d]pyrimidin-2-amine]	200 to 500 nM
CS(=O)(=O)N1CCC(Nc2ncc3c(n2)-c2c(nn(C4CCOC4)c2C2CC2)CC3)CC1 (stereo not shown) [Example 14, 9-Cyclopropyl-N-(1-(methylsulfonyl)piperidin-4-yl)-8-(tetrahydrofuran-3-yl)-6,8-dihydro-5H-pyrazolo[3,4-h]quinazolin-2-amine]	≤ 50 nM
CS(=O)(=O)N1CCC(Nc2ncc3c(n2)-c2c(nn(CCO)c2C2CC2)CC3)CC1 [Example 15, 2-(9-Cyclopropyl-2-((1-(methylsulfonyl)piperidin-4-yl)amino)-5,6-dihydro-8H-pyrazolo[3,4-h]quinazolin-8-yl)ethan-1-ol]	≤ 50 nM
CS(=O)(=O)N1CCC(Nc2ncc3c(n2)-c2c(nn(C4CC4)c2C2CC2)CC3)CC1 [Example 16, 8,9-Dicyclopropyl-N-(1-(methylsulfonyl)piperidin-4-yl)-6,8-dihydro-5H-pyrazolo[3,4-h]quinazolin-2-amine]	≤ 50 nM
Cc1nc2c(n1C)-c1nc(NC3CCN(S(C)(=O)=O)CC3)ncc1CC2 [Example 17, 1,2-Dimethyl-N-(1-(methylsulfonyl)piperidin-4-yl)-4,5-dihydro-1H-imidazo[4,5-h]quinazolin-8-amine]	≤ 50 nM
CC(C)c1nc2c(n1C)-c1nc(NC3CCN(S(C)(=O)=O)CC3)ncc1CC2 [Example 18, 2-Isopropyl-1-methyl-N-(1-(methylsulfonyl)piperidin-4-yl)-4,5-dihydro-1H-imidazo[4,5-h]quinazolin-8-amine]	≤ 50 nM
Cc1nc2c(n1C1CC1)-c1nc(NC3CCN(S(C)(=O)=O)CC3)ncc1CC2 [Example 19, 1-Cyclopropyl-2-methyl-N-(1-(methylsulfonyl)piperidin-4-yl)-4,5-dihydro-1H-imidazo[4,5-h]quinazolin-8-amine]	≤ 50 nM
CS(=O)(=O)N1CCC(Nc2ncc3c(n2)-c2c(ncn2C2CC2)CC3)CC1 [Example 20, 1-Cyclopropyl-N-(1-(methylsulfonyl)piperidin-4-yl)-4,5-dihydro-1H-imidazo[4,5-h]quinazolin-8-amine]	≤ 50 nM
CS(=O)(=O)N1CCC(Nc2ncc3c(n2)-c2c(nc(Br)n2C2CC2)CC3)CC1 [Example 21, 2-Bromo-1-cyclopropyl-N-(1-(methylsulfonyl)piperidin-4-yl)-4,5-dihydro-1H-imidazo[4,5-h]quinazolin-8-amine]	≤ 50 nM
CS(=O)(=O)N1CCC(Nc2ncc3c(n2)-c2c(nc(-c4ccccc4)n2C2CC2)CC3)CC1 [Example 22, 1-Cyclopropyl-N-(1-(methylsulfonyl)piperidin-4-yl)-2-phenyl-4,5-dihydro-1H-imidazo[4,5-h]quinazolin-8-amine]	≤ 50 nM
CS(=O)(=O)N1CCC(Nc2ncc3c(n2)-c2c(nc(-c4ccccc4F)n2C2CC2)CC3)CC1 [Example 23, 1-Cyclopropyl-2-(2-fluorophenyl)-N-(1-(methylsulfonyl)piperidin-4-yl)-4,5-dihydro-1H-imidazo[4,5-h]quinazolin-8-amine]	≤ 50 nM
Cc1nn(C)cc1-c1nc2c(n1C1CC1)-c1nc(NC3CCN(S(C)(=O)=O)CC3)ncc1CC2 [Example 24, 1-Cyclopropyl-2-(1,3-dimethyl-1H-pyrazol-4-yl)-N-(1-(methylsulfonyl)piperidin-4-yl)-4,5-dihydro-1H-imidazo[4,5-h]quinazolin-8-amine]	≤ 50 nM
Cc1nc2c(n1C1CC1)-c1nc(NC3CCN(S(C)(=O)=O)CC3)ncc1CC2(C)C [Example 25, 1-Cyclopropyl-2,4,4-trimethyl-N-(1-(methylsulfonyl)piperidin-4-yl)-4,5-dihydro-1H-imidazo[4,5-h]quinazolin-8-amine]	≤ 50 nM

Further lines, results first:

IC50	SMILES
≤ 50 nM	CCS(=O)(=O)N1CCC(Nc2ncc3c(n2)-c2c(nc(C)n2C)CC3)CC1 [Example 1, N-(1-(Ethylsulfonyl)piperidin-4-yl)-1,2-dimethyl-4,5-dihydro-1H-imidazo[4,5-h]quinazolin-8-amine]
≤ 50 nM	Cc1nc2c(n1C)-c1nc(NC3CCN(S(=O)(=O)C4CC4)CC3)ncc1CC2 [Example 2, N-(1-(Cyclopropylsulfonyl)piperidin-4-yl)-1,2-dimethyl-4,5-dihydro-1H-imidazo[4,5-h]quinazolin-8-amine]
≤ 50 nM	Cc1nc2c(n1C)-c1nc(NC3CCN(S(=O)(=O)c4cnn(C)c4)CC3)ncc1CC2 [Example 3, 1,2-Dimethyl-N-(1-((1-methyl-1H-pyrazol-4-yl)sulfonyl)piperidin-4-yl)-4,5-dihydro-1H-imidazo[4,5-h]quinazolin-8-amine]
≤ 50 nM	Cc1nc2c(n1C)-c1nc(NC3CCN(S(=O)(=O)c4cn[nH]c4)CC3)ncc1CC2 [Example 4, N-(1-((1H-Pyrazol-4-yl)sulfonyl)piperidin-4-yl)-1,2-dimethyl-4,5-dihydro-1H-imidazo[4,5-h]quinazolin-8-amine]
≤ 50 nM	Cc1nc2c(n1C)-c1nc(NC3CCN(S(=O)(=O)c4cccc(C#N)c4)CC3)ncc1CC2 [Example 5, 3-((4-((1,2-Dimethyl-4,5-dihydro-1H-imidazo[4,5-h]quinazolin-8-yl)amino)piperidin-1-yl)sulfonyl)benzonitrile]
≤ 50 nM	Cc1nc(S(=O)(=O)N2CCC(Nc3ncc4c(n3)-c3c(nc(C)n3C)CC4)CC2)cn1C [Example 6, N-(1-((1,2-Dimethyl-1H-imidazol-4-yl)sulfonyl)piperidin-4-yl)-1,2-dimethyl-4,5-dihydro-1H-imidazo[4,5-h]quinazolin-8-amine]
≤ 50 nM	Cc1nc2c(n1Cc1ccccc1)-c1nc(NC3CCN(S(C)(=O)=O)CC3)ncc1CC2 [Example 8, 1-Benzyl-2-methyl-N-(1-(methylsulfonyl)piperidin-4-yl)-4,5-dihydro-1H-imidazo[4,5-h]quinazolin-8-amine]
≤ 50 nM	Cc1c2c(nn1-c1c(F)cccc1F)CCc1cnc(NC3CCN(S(C)(=O)=O)CC3)nc1-2 [Example 11, 8-(2,6-Difluorophenyl)-9-methyl-N-(1-(methylsulfonyl)piperidin-4-yl)-6,8-dihydro-5H-pyrazolo[3,4-h]quinazolin-2-amine]
≤ 50 nM	Cn1nc2c(c1C1CC1)-c1nc(NC3CCN(S(C)(=O)=O)CC3)ncc1CC2 [Example 12, 9-Cyclopropyl-8-methyl-N-(1-(methylsulfonyl)piperidin-4-yl)-6,8-dihydro-5H-pyrazolo[3,4-h]quinazolin-2-amine]
≤ 50 nM	CC(C)c1c2c(nn1C)CCc1cnc(NC3CCN(S(C)(=O)=O)CC3)nc1-2 [Example 13, 9-Isopropyl-8-methyl-N-(1-(methylsulfonyl)piperidin-4-yl)-6,8-dihydro-5H-pyrazolo[3,4-h]quinazolin-2-amine]
